Conditions: pH 6

Which “Effect on SNAC solubility” value does the source give for `NC(=O)c1cccnc1` [Nicotinamide] here?
The value was “concentration dependent effect”.

From US20230000949A1, “SOLID COMPOSITIONS COMPRISING A PCSK9 INHIBITOR AND A SALT OF N-(8-(2-HYDROXYBENZOYL)AMINO)CAPRYLIC ACID” (Novo Nordisk A/S, priority 2019, published 2023)
